Activity calls are given as the source filed them. No cut-off for these calls is given here.
Tests used:
Acetylcholinesterase [1] = biological target: T1, Acetylcholinesterase (Homo sapiens, UniProt P22303); assay: Inhibition of AChE (unknown origin) using acetylthiocholine iodide as substrate by DTNB reagent based Ellman's method
Cholinesterase = Cholinesterase (Homo sapiens, UniProt P06276); assay: Inhibition of BuChE (unknown origin) using butyrylthiocholine iodide as substrate by DTNB reagent based Ellman's method
[2] = biological target: 5-hydroxytryptamine receptor 4 (Homo sapiens) (UniProt Q13639); assay: Displacement of [3H]GR113808 from human 5-HT4 receptor expressed in Chem-1 cell membrane incubated for 60 mins by radiometric scintillation counting analysis relative to control; assay type: cell membranes; conditions: filed as agonist
Acetylcholinesterase [3] = biological target: T1, Acetylcholinesterase; assay: Mixed type inhibition of AChE (unknown origin) using acetylthiocholine iodide as substrate by Lineweaver-Burk double reciprocal plot analysis

T1 sequence (P22303 whole entry): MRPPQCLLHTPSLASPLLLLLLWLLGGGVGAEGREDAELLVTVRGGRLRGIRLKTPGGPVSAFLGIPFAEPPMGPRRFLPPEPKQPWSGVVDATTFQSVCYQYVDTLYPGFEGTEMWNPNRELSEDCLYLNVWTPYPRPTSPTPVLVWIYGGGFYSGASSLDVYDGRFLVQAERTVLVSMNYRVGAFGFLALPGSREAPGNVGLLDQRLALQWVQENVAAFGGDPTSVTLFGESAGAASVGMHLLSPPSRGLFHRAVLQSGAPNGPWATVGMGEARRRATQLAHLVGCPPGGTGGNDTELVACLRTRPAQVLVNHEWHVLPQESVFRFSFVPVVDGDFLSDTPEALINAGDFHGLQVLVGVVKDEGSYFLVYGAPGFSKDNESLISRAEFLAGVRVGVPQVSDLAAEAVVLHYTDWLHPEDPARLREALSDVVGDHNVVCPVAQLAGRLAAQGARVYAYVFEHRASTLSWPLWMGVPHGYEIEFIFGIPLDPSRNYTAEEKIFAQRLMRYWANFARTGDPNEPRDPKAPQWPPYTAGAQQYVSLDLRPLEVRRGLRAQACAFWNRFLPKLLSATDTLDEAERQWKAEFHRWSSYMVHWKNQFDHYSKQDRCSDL
Sequence of Cholinesterase (P06276 whole entry): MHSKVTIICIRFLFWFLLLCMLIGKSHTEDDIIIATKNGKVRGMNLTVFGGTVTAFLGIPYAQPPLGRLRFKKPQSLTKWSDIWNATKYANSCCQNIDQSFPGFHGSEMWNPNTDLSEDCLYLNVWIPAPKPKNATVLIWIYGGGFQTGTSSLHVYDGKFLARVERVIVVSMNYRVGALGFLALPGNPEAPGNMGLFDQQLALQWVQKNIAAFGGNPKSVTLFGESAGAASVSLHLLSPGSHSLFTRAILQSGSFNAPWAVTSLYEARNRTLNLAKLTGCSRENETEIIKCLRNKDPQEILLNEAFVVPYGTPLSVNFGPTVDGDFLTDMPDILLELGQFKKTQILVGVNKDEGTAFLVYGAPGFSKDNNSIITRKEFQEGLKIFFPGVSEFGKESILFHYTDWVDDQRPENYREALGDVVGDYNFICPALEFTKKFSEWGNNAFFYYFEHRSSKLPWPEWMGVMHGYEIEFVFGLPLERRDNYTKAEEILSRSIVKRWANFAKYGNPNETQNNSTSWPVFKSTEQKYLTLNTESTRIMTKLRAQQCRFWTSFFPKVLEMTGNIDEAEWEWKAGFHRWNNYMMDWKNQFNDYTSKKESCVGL
Sequence of 5-hydroxytryptamine receptor 4 (Homo sapiens) (Q13639 whole entry): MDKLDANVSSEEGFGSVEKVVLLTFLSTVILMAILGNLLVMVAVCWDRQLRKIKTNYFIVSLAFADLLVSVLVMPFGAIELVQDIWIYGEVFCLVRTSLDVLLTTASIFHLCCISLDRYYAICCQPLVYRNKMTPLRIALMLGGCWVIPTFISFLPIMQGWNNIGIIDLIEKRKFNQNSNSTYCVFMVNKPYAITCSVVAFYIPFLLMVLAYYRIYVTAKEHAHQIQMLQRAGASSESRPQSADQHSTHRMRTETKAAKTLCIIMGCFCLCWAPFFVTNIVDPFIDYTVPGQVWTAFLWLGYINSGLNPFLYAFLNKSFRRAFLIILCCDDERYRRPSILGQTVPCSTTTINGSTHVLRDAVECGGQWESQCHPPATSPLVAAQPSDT

SMILES | IC50 (Acetylcholinesterase [1]) | IC50 (Cholinesterase) | inhibition [2] | inhibition (Acetylcholinesterase [3])
COc1ccc(C(=O)Cc2ncc(C(=O)N3CCN(Cc4ccccc4)CC3)cn2)cc1 | 17.3 µM | 5.7 µM |  | 
COc1ccc(C(=O)Cc2ncc(C(=O)N(C)CCCOc3ccc(OC)c(OC)c3)cn2)cc1 | 29.8 µM | 8.3 µM |  | 
CCOc1ccc(C(=O)Cc2ncc(C(=O)N(C)CCCOc3ccc([N+](=O)[O-])cc3)cn2)cc1 | 6.4 µM | 6.66 µM |  | 
COc1ccc(C(=O)Cc2ncc(C(=O)N(C)CCCOc3ccc([N+](=O)[O-])cc3)cn2)cc1OC | 3.79 µM | 5.73 µM |  | 
COc1ccc(C(=O)Cc2ncc(C(=O)NC3CCN(Cc4ccccc4)CC3)cn2)cc1 | 28 µM | 3.7 µM |  | 
COc1cc(N)c(Cl)cc1C(=O)CCC1CCN(CC2CCCCC2)CC1 |  |  | 48.3% | 
C/C=C1\[C@H]2C=C(C)C[C@]1(N)c1ccc(=O)[nH]c1C2 [HUPERZINE A] |  | > 10000 µM |  | 
COc1ccc(C(=O)Cc2ncc(C(=O)N(C)CCCOc3ccc(C(F)(F)F)cc3)cn2)cc1 | 29.8 µM | 6.24 µM |  | 
COc1ccc(C(=O)Cc2ncc(C(=O)N(C)CCCOc3c(F)c(F)c(F)c(F)c3F)cn2)cc1 | 5.14 µM | 28.9 µM |  | 
CN(CCCOc1ccc([N+](=O)[O-])cc1)C(=O)c1cnc(CC(=O)c2ccc3c(c2)OCO3)nc1 | 0.99 µM | 48.4 µM |  | 
COc1ccc(C(=O)Cc2ncc(C(=O)Nc3ccncc3)cn2)cc1 | 17.9 µM | 31.4 µM |  | 
COc1ccc(C(=O)Cc2ncc(C(=O)NCc3cccs3)cn2)cc1 | 30.7 µM | 3.45 µM |  | 
COc1cccc(C(=O)Cc2ncc(C(=O)N(C)CCCOc3ccc([N+](=O)[O-])cc3)cn2)c1 | 4 µM | 2.59 µM |  | 
COc1ccc(OCCCN(C)C(=O)c2cnc(CC(=O)c3ccc(OC)cc3)nc2)cc1 | 9.82 µM | 9.16 µM |  | 
CN(CCCOc1ccc([N+](=O)[O-])cc1)C(=O)c1cnc(CC(=O)c2cccs2)nc1 | 0.88 µM | 10 µM |  | Active
COc1ccc(C(=O)Cc2ncc(C(=O)NCc3ccc(OC)c(OC)c3)cn2)cc1 | 10 µM | 30.7 µM |  | 
COc1ccc(C(=O)Cc2ncc(C(=O)N(C)CCCOc3ccc([N+](=O)[O-])cc3)cn2)cc1 | 4.56 µM | 13.1 µM |  | 
COc1ccc(C(=O)Cc2ncc(C(=O)N(C)CCCOc3cccc(OC)c3)cn2)cc1 | 44.9 µM | 8.36 µM |  | 
CN(CCCOc1ccc([N+](=O)[O-])cc1)C(=O)c1cnc(CC(=O)c2ccccc2)nc1 | 9.94 µM | 6.08 µM |  | 

Source: ChEMBL document CHEMBL5113467, “Design, synthesis and evaluation of 2-(2-oxoethyl)pyrimidine-5-carboxamide derivatives as acetylcholinesterase inhibitors” (Bioorg Med Chem Lett, 2022)
